Source: article PMC12406203 (Journal of Medicinal Chemistry, 2025)

Tests used:
[1] = tested on: ABL1(E255K)-phosphorylated
[2] = tested on: JAK2(JH1domain-catalytic)
hBChE in SH-SY5Y cells = molecular target: T1, hBChE in SH-SY5Y cells (Homo sapiens, UniProt P06276); test: hBChE inhibition assay in SH-SY5Y cells; type: cell-based; conditions: 10 and 1 μM; compared with control ethopropazine
T1 construct: endogenous in cells; host or cells: SH-SY5Y human neuroblastoma cells
Procedure: hBChE activity in live whole SH-SY5Y cells was measured by the modified procedure of Onder and colleagues. Briefly, after centrifugation, the complete medium was removed and cells were suspended in PBS warmed to 37 °C. 50 μL of this suspension was added to a 96-well plate so that each well contained approximately 360,000 cells. 81 μL of 0.5 mM 5,5′-dithiobis (2-nitrobenzoic acid) in 0.1 M potassium phosphate buffer (pH 7.0) was added, followed by 2 μL of DMSO solutions of compounds 94, 95, or ethopropazine (positive control). The reaction was initiated by the addition of 67 μL of 1 mM acetylthiocholine. The total reagent volume in each well was 200 μL. The microplate was covered with a lid to minimize evaporation while absorbance at 412 nm was recorded over a period of 120 min with a 30 s interval on a Tecan Spark microplate reader (Tecan Austria GmbH, Salzburg, Austria) set to 24 °C. Autohydrolysis rates of butyrylthiocholine were measured in wells that contained all reagents + PBS with no cells. The residual activity of hBChE was then calculated by the protocol described above.

HepG2 cells = test: MTS metabolic activity (cytotoxicity); type: cell-based, human; conditions: HepG2, MTS assay, 24 h, concentrations of 5 μM or less
Procedure: (§1) The human hepatocellular carcinoma HepG2 and human neuroblastoma SH-SY5Y cell lines were purchased from American Type Culture Collection (Manassas, VA, USA). The murine microglia BV2 cells were a generous gift from Dr. Biljana Božić Nedeljković (University of Belgrade, Belgrade, Serbia). Cells were cultured in Advanced Dulbecco’s modified Eagle’s medium (Gibco, Thermo Fisher Scientific, Waltham, MA, USA) supplemented with 10% fetal bovine serum (FBS, Gibco), 2 mM L-glutamine, 50 U/mL penicillin and 50 μg/mL streptomycin (Sigma, St. Louis, MO, USA) in a humidified atmosphere of 95% air and 5% CO2 at 37 °C, and grown to 80% confluence. Prior to cell treatment, complete medium was replaced with serum-free medium. Compounds 94 and 95 were prepared as a stock solution of 30 mM in DMSO and were used at concentrations of 1–100 μM.
(§2) BV2 cells (5 × 10^3/well) and HepG2 and SH-SY5Y cells (1 × 10^4/well) were seeded in 96-well plates and assessed by MTS ([3-(4,5-dimethylthiazol-2-yl)-5-(3-carboxymethoxyphenyl)-2-(4-sulfophenyl)-2H tetrazolium, inner salt) assay for their response to compounds 94 and 95. Cells were treated with increasing concentrations of compounds (1–100 μM) in serum-free medium, and metabolic activity was assessed after 24 h using the CellTiter 96 Aqueous One Solution Cell Proliferation Assay (Promega, Madison, WI, USA), in accordance with the manufacturer’s instructions. Absorbance was measured with an automatic microplate reader (Tecan Safire^2, Switzerland) at a wavelength of 492 nm. Results are presented as a percentage of the control (DMSO).

SH-SY5Y cells = test: MTS metabolic activity (cytotoxicity); type: cell-based, human; conditions: MTS assay, 24 h, concentrations of 5 μM or less
Procedure: as §1, §2

Log D determination = type: physicochemical; conditions: pH 7.4, n-octanol/PBS
Procedure: Calibration curves for phosphate-buffered saline (PBS) (pH = 7.4) and octanol were prepared (0.05–5 μM). The buffer and n-octanol phases were shaken, using phosphate buffer (pH = 7.4). The phase ratios of buffer to n-octanol were 1:1 (0.8 mL octanol:0.8 mL PBS) and 1:3 (0.4 mL octanol:1.2 mL PBS). Octanol was then pipetted into a HPLC vial, followed by the addition of 1.6 μL of a 10 mM stock DMSO solution and the buffer. The vial was mixed with a vortex mixer and shaken for 3 h in the dark at 23 °C. Subsequently, the aqueous and organic phases were sampled with a syringe into a new HPLC vial, and the samples were analyzed using UHPLC/DAD.

[3] = tested on: mice (locomotor activity); test: Locomotor activity test; conditions: 10 mg/kg i.p.
Text: The mice had unlimited access to food and water prior to the experiment. Specified conditions for the maintenance of mice were ensured throughout the experiment, including tree bedding (Transwior, Poland) and cage enrichment (tunnels, nesting material, wooden igloos, etc.). For behavioral tests, the mice were selected randomly; each group consisted of 7–10 mice. […] After in vivo tests, the animals were immediately euthanized, and their tissues were collected and stored for further ex vivo testing.
They were administered intraperitoneally (i.p.) 60 min before the acquisition trial of the PA, NOR, and MWM tasks.
The locomotor activity test was performed using activity cages (40 cm × 40 cm × 30 cm, supplied with IR beam emitters) (Activity Cage 7441, Ugo Basile, Italy) connected to a counter for the recording of light-beam interrupts. […] The animals’ movements (i.e., the number of light-beam crossings) were counted during the next 60 min of the test. Before the experiment, the mice were habituated to activity cages for 15 min.

T1 sequence (P06276 29-602): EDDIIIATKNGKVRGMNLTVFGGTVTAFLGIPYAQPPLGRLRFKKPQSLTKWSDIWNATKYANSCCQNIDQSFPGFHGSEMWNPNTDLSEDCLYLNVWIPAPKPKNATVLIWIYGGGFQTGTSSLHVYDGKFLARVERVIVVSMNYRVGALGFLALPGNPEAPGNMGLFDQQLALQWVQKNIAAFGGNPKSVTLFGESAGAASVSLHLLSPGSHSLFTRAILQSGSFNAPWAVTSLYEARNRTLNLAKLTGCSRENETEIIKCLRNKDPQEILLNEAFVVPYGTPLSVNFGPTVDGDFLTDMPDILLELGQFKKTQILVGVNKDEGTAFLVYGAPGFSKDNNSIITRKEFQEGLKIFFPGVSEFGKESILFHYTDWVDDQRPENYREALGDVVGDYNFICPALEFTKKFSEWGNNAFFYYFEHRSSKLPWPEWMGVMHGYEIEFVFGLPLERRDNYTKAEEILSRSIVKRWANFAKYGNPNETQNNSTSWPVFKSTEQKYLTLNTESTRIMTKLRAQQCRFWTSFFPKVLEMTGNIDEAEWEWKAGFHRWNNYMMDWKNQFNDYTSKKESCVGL

CN(C)CCNC(=O)c1cc2c(cnn2CC2CCCCC2)cc1Cc1ccc(F)cc1F [Compound 95, 1-(Cyclohexylmethyl)-5-(2,4-difluorobenzyl)-N-(2-(dimethylamino)ethyl)-1H-indazole-6-carboxamide]
RA @ 1000nM [1]: 96%
RA @ 10000nM [1]: 93%
RA @ 1000nM (BRAF): 100%
RA @ 10000nM (BRAF): 100%
RA @ 1000nM (CDK2): 99%
RA @ 10000nM (CDK2): 100%
RA @ 1000nM (DCAMKL1): 100%
RA @ 10000nM (DCAMKL1): 100%
RA @ 1000nM (DYRK1B): 95%
RA @ 10000nM (DYRK1B): 100%
RA @ 1000nM (EPHA2): 100%
RA @ 10000nM (EPHA2): 100%
RA @ 1000nM (ERBB4): 93%
RA @ 10000nM (ERBB4): 81%
RA @ 1000nM (ERK1): 96%
RA @ 10000nM (ERK1): 90%
RA @ 1000nM (FGFR3): 100%
RA @ 10000nM (FGFR3): 92%
RA @ 1000nM (IKKβ): 93%
RA @ 10000nM (IKKβ): 80%
RA @ 1000nM [2]: 100%
RA @ 10000nM [2]: 100%
RA @ 1000nM (JNK3): 48%
RA @ 10000nM (JNK3): 3.7%
RA @ 1000nM (KIT): 100%
RA @ 10000nM (KIT): 100%
RA @ 1000nM (NLK): 100%
RA @ 10000nM (NLK): 100%
RA @ 1000nM (p38δ): 100%
RA @ 10000nM (p38δ): 100%
RA @ 1000nM (PAK1): 100%
RA @ 10000nM (PAK1): 93%
RA @ 1000nM (PAK2): 100%
RA @ 10000nM (PAK2): 95%
RA @ 1000nM (PDGFRB): 100%
RA @ 10000nM (PDGFRB): 96%
RA @ 1000nM (PDPK1): 100%
RA @ 10000nM (PDPK1): 87%
RA @ 1000nM (PIM3): 100%
RA @ 10000nM (PIM3): 100%
RA @ 1000nM (ROCK2): 83%
RA @ 10000nM (ROCK2): 100%
RA @ 1000nM (ULK2): 77%
RA @ 10000nM (ULK2): 75%
RA @ 1000nM (YANK3): 100%
RA @ 10000nM (YANK3): 100%
hBChE inhibition in SH-SY5Y human neuroblastoma cell line (hBChE in SH-SY5Y cells): outperformed the control ethopropazine
cell viability (HepG2 cells): did not affect cell viability
cell viability (SH-SY5Y cells): did not affect cell viability
measured log D at pH 7.4 (Log D determination): 2.77
motor adverse effects (locomotor activity test) [3]: no motor adverse effects

CC(C)Cn1ncc2cc(Cc3ccc(F)cc3F)c(C(=O)NCCN(C)C)cc21 [Compound 94, 5-(2,4-Difluorobenzyl)-N-(2-(dimethylamino)ethyl)-1-isobutyl-1H-indazole-6-carboxamide]
RA @ 1000nM [1]: 96%
RA @ 10000nM [1]: 55%
RA @ 1000nM (BRAF): 100%
RA @ 10000nM (BRAF): 100%
RA @ 1000nM (CDK2): 82%
RA @ 10000nM (CDK2): 97%
RA @ 1000nM (DCAMKL1): 100%
RA @ 10000nM (DCAMKL1): 100%
RA @ 1000nM (DYRK1B): 100%
RA @ 10000nM (DYRK1B): 85%
RA @ 1000nM (EPHA2): 97%
RA @ 10000nM (EPHA2): 100%
RA @ 1000nM (ERBB4): 85%
RA @ 10000nM (ERBB4): 83%
RA @ 1000nM (ERK1): 87%
RA @ 10000nM (ERK1): 87%
RA @ 1000nM (FGFR3): 100%
RA @ 10000nM (FGFR3): 100%
RA @ 1000nM (IKKβ): 89%
RA @ 10000nM (IKKβ): 89%
RA @ 1000nM [2]: 98%
RA @ 10000nM [2]: 100%
RA @ 1000nM (JNK3): 55%
RA @ 10000nM (JNK3): 6.8%
RA @ 1000nM (KIT): 100%
RA @ 10000nM (KIT): 100%
RA @ 1000nM (NLK): 100%
RA @ 10000nM (NLK): 98%
RA @ 1000nM (p38δ): 97%
RA @ 10000nM (p38δ): 100%
RA @ 1000nM (PAK1): 96%
RA @ 10000nM (PAK1): 94%
RA @ 1000nM (PAK2): 100%
RA @ 10000nM (PAK2): 97%
RA @ 1000nM (PDGFRB): 100%
RA @ 10000nM (PDGFRB): 97%
RA @ 1000nM (PDPK1): 88%
RA @ 10000nM (PDPK1): 74%
RA @ 1000nM (PIM3): 100%
RA @ 10000nM (PIM3): 100%
RA @ 1000nM (ROCK2): 87%
RA @ 10000nM (ROCK2): 96%
RA @ 1000nM (ULK2): 71%
RA @ 10000nM (ULK2): 88%
RA @ 1000nM (YANK3): 100%
RA @ 10000nM (YANK3): 100%
hBChE inhibition in SH-SY5Y human neuroblastoma cell line (hBChE in SH-SY5Y cells): outperformed the control ethopropazine
cell viability (HepG2 cells): did not affect cell viability
cell viability (SH-SY5Y cells): did not affect cell viability
measured log D at pH 7.4 (Log D determination): 2.13
motor adverse effects (locomotor activity test) [3]: no motor adverse effects
